According to article PMC10135297, “Peptide-Resorcinarene Conjugates Obtained via Click Chemistry: Synthesis and Antimicrobial Activity” (Antibiotics, 2023):
Values after ≈ are worked out from the molar mass of the structure shown. Like-named read-outs stand apart in the source and are kept apart here. Peptide text beside a SMILES is read from it.

Key:
[1] = test system: S. aureus ATCC 25923; format: cell-based, Staphylococcus aureus; details: for MBC S. aureus 25923: ATCC 25923, 24 h; for MIC S. aureus 25923: broth microdilution, Mueller Hinton broth, 24 h at 37 °C, absorbance 620 nm, in duplicate, strain sensitive to vancomycin
Experimental: (§1) The minimum inhibitory concentration (MIC) was determined using a broth microdilution assay. Specifically, […] of Mueller Hinton broth and 90 μL of peptide (initial concentration 444 μg/mL) were added to a 96-well plate, with serial dilutions (200, 100, 50, 25, 12.5, and […] μg/mL). Then, 10 μL (5 × 10^5 CFU/mL) of inoculum was added to each well, and the final volume in each well was 100 μL. They were incubated for 24 h at 37 °C, and absorbance at 620 nm was measured using the ELISA reader. To determine the minimum bactericidal concentration (MBC), an aliquot was taken from each well and placed on a Mueller Hinton Agar plate. After 24 h of incubation at 37 °C, the MBC was determined. Each of these tests was performed in duplicate.

[2] = test system: E. coli ATCC 25922; format: cell-based, Escherichia coli
Experimental: as §1

[3] = test system: MCF-7 cell line; details: cited from earlier work
Experimental: (§2) Finally, the cytotoxic effect of the conjugates over fibroblasts, MCF-7, and HeLa cell lines was evaluated (Figure 7).

[4] = test system: HeLa cell line; details: cited from earlier work
Experimental: as §2

[5] = test system: erythrocytes; format: cell-based
Experimental: First, 5.0 mL of heparinized peripheral blood was centrifuged at 1000 rpm for 7 min. The erythrocyte fraction was suspended in […] saline solution (SS) and washed twice by centrifugation at 1000 rpm for 7 min. The erythrocytes (2% hematocrit) were incubated with peptide (ranging from 6.2 to 200 µg/mL) for 2 h at 37 °C. SS was used as a negative control, while distilled water was used as a positive control. The mixtures were centrifuged, the supernatants were collected, and the absorbance was determined to be 540 nm.

[6] = test system: C. albicans 256 HUSI-PUJ (R); set-up: method as in PMID 36358216; details: resistant to fluconazole; cited from earlier work
[7] = test system: C. albicans SC5314 (S); set-up: method as in PMID 36358216; details: sensitive to fluconazole; cited from earlier work

`CC(C)C[C@H](NC(=O)[C@H](CC(C)C)NC(=O)[C@@H](N)CCCNC(=N)N)C(=O)N[C@@H](CCCNC(=N)N)C(N)=O` [RLLR] (H-RLLR-NH2) gave an MBC S. aureus 25923 [1] greater than 359 µM, an MIC S. aureus 25923 [1] greater than 359 µM and an MBC E. coli 25922 ([2]; ATCC 25922, 24 h) greater than 359 µM. For the same compound, the MIC E. coli 25922 ([2]; ATCC 25922, 24 h) was greater than 359 µM.
`N=C(N)NCCC[C@H](NC(=O)[C@H](Cc1c[nH]c2ccccc12)NC(=O)[C@H](CCC(N)=O)NC(=O)[C@H](Cc1c[nH]c2ccccc12)NC(=O)[C@H](CCCNC(=N)N)NC(=O)[C@@H](N)CCCNC(=N)N)C(N)=O` [RRWQWR] (H-RRWQWR-NH2) gave an MBC S. aureus 25923 [1] greater than 203 µM, an MIC S. aureus 25923 [1] greater than 203 µM and an MBC E. coli 25922 ([2]; ATCC 25922, 24 h) of 203 µM (≈ 200 µg/mL). The MIC E. coli 25922 ([2]; ATCC 25922, 24 h) was 203 µM (≈ 200 µg/mL).
For (RRWQWR)4-K2-C2, the “Cytotoxicity against MCF-7” value [3] is given as “exhibited cytotoxicity” and the “Cytotoxicity against HeLa” value [4] is given as “exhibited cytotoxicity”.
With “CTpH(F)-(AAC-(K)-RRWQWR)4 (rctt) [tetravalent (peptide)4-resorcinarene conjugate with four copies of RRWQWR on CTpH(F)]” the “Hemolytic effect at the MIC values” [5] was “Neither of the two conjugates exhibited a significant hemolytic effect”, the MBC E. coli 25922 ([2]; aliquot of each MIC well on Mueller Hinton Agar, 24 h at 37 °C, in duplicate) was 36 µM and the MIC E. coli 25922 ([2]; broth microdilution, Mueller Hinton broth, 24 h at 37 °C, absorbance 620 nm, in duplicate, strain susceptible to ciprofloxacin) was 36 µM.
In the case of RLLRRLLR, the “MIC clinical isolate C. albicans 256 HUSI-PUJ” value [6] is given as greater than 183 µM and the “MIC C. albicans strain ATCC SC5314” value [7] is given as greater than 183 µM.
